{"source": "patent EP0427078A1", "about": "“Folinic acid-cyclodextrin inclusion compound” (MAGIS FARMACEUTICI S.p.A., priority 1989, dated 1991)", "key": {"[1]": {"assay_type": "physicochemical"}, "[2]": {"test": "Acute toxicity (LD50) in the mouse", "details": "in vivo, read-out: LD₅₀"}}}
{"molecule": "Nc1nc(=O)c2c([nH]1)NCC(CNc1ccc(C(=O)NC(CCC(=O)O)C(=O)O)cc1)N2C=O", "note": "(stereo not shown) [Calcium folinate, calcium folinate]", "values": [{"measurement": "STABILITY AT pH 2 MICROBIOLOGICAL TITRE AFTER 3 MONTHS", "setting": "[1]", "result": 40, "unit": "%"}, {"measurement": "STABILITY AT pH 2 MICROBIOLOGICAL TITRE AFTER 6 MONTHS", "setting": "[1]", "result": 20, "unit": "%"}, {"measurement": "STABILITY AT pH 2 MICROBIOLOGICAL TITRE TIME 0", "setting": "[1]", "result": 100, "unit": "%"}, {"measurement": "LD50", "setting": "[2]", "result": "> 7000", "unit": "mg/kg"}]}
